ChEMBL document CHEMBL1142734, “Biological properties of D- and L-1-deoxyazasugars” (J Med Chem, 2005)

Tests used:
[1] = target: T1, Beta-mannosidase (Rattus norvegicus) (UniProt Q4FZV0); assay: Percent inhibition of beta-mannosidase of rat epididymis at 1000 uM
T1 sequence (whole entry): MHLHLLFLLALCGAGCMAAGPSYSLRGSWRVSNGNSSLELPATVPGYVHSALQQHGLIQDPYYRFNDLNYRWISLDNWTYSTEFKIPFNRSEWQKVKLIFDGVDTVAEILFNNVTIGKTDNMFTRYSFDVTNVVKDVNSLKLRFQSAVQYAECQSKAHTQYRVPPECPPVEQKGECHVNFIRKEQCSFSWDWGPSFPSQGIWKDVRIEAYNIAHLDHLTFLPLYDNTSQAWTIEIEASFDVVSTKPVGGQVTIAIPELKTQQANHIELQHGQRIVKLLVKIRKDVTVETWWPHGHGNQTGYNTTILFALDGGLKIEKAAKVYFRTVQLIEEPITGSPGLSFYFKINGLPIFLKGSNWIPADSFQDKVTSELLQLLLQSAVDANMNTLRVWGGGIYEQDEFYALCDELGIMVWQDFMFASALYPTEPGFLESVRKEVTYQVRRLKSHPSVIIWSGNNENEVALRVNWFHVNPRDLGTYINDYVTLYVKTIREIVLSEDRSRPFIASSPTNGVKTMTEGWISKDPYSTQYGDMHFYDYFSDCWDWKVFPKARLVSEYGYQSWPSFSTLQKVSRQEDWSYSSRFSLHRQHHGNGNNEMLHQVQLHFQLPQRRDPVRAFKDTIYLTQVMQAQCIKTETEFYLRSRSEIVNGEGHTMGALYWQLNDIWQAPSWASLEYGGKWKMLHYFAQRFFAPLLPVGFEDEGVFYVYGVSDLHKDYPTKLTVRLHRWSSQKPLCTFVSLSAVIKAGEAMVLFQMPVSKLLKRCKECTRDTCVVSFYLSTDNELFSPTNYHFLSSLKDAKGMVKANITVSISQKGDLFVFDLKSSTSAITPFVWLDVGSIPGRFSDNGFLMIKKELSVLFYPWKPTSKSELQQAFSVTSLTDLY

[2] = target: T2, Tissue alpha-L-fucosidase (Homo sapiens) (UniProt P04066); conditions: 1000 uM
T2 sequence (whole entry): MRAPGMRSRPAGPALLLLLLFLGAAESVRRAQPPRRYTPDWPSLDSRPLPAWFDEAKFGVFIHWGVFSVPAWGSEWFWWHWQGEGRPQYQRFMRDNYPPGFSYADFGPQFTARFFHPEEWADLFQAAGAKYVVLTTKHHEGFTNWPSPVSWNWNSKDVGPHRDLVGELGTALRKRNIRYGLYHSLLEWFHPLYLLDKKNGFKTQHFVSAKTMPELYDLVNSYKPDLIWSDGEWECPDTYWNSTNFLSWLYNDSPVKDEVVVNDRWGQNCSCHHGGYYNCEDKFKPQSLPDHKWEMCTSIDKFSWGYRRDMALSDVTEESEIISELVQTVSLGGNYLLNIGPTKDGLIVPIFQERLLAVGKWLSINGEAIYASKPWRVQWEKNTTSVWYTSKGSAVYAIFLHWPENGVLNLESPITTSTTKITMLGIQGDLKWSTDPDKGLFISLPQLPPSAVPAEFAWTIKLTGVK

[3] = target: T3, Beta-galactosidase (Bos taurus) (UniProt Q58D55); assay: Percent inhibition of beta-galactosidase of bovine liver at 1000 uM
T3 sequence (whole entry): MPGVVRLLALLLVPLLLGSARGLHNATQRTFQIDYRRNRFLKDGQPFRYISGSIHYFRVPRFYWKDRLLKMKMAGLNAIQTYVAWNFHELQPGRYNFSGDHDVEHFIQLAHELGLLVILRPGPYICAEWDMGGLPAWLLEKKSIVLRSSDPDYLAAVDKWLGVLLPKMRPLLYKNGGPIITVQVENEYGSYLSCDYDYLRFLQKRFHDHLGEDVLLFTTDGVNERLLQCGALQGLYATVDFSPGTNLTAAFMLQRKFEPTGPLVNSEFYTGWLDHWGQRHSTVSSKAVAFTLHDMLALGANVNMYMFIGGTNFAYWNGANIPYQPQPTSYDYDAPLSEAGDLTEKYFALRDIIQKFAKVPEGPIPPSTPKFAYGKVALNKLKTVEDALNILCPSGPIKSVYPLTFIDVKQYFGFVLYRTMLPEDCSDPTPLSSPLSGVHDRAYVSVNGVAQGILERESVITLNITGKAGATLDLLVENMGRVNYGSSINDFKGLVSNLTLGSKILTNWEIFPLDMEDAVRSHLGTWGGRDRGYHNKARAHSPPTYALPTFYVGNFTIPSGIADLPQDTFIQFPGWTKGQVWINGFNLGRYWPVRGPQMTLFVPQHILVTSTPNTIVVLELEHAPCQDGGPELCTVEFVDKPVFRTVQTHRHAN

[4] = target: Sucrase-isomaltase, intestinal (Rattus norvegicus) (UniProt P23739); conditions: 1000 uM
Sequence of Sucrase-isomaltase, intestinal (Rattus norvegicus) (P23739 1-1013 limits assumed): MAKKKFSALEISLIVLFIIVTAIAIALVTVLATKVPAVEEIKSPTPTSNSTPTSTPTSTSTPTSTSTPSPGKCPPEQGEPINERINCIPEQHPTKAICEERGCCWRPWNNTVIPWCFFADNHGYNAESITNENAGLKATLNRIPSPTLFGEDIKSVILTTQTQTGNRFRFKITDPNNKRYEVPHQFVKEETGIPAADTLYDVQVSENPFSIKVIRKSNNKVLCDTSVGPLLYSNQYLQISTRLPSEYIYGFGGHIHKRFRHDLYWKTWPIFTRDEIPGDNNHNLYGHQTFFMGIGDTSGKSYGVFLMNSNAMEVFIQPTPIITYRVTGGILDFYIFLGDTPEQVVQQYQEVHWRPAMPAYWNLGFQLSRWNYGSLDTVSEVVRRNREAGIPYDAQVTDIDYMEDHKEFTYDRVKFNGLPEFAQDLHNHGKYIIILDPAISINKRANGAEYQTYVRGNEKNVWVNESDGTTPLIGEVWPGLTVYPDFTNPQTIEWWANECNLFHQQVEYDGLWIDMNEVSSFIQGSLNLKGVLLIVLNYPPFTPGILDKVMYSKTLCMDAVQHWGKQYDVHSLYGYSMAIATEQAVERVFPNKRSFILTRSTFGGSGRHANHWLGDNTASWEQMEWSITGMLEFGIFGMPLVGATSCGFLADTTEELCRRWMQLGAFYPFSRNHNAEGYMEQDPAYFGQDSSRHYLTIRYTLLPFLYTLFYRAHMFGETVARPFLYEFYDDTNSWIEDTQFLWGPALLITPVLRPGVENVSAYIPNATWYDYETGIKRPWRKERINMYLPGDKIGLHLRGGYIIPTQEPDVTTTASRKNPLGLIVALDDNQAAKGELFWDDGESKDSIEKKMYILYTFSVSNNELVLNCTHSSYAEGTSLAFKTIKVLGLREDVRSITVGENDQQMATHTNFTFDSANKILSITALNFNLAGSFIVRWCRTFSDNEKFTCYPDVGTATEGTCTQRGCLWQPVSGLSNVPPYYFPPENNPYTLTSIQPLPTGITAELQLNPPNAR
Sequence of Sucrase-isomaltase, intestinal (Rattus norvegicus) (P23739 1014-1841 limits assumed): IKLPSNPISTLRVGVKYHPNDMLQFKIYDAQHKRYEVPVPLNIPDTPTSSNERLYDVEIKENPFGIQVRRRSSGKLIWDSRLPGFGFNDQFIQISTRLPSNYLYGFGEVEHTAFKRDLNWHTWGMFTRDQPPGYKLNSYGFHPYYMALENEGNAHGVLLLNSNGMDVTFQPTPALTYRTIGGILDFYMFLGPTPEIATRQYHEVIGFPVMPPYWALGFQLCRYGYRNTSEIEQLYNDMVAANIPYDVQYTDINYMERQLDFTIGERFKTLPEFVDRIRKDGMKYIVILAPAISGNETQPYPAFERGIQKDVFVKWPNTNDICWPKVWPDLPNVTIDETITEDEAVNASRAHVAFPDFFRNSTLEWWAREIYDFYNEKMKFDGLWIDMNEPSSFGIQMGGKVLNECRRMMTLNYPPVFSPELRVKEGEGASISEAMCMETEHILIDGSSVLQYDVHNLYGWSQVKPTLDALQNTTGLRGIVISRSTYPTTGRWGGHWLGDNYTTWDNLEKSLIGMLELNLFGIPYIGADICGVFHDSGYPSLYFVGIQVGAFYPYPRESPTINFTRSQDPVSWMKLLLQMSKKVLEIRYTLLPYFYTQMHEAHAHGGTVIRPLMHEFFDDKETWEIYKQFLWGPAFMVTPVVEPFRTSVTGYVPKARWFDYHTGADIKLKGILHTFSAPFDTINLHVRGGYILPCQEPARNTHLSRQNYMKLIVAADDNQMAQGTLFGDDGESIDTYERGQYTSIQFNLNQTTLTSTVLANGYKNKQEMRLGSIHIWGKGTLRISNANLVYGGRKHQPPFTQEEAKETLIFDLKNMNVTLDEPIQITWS

[5] = target: T4, Tissue alpha-L-fucosidase (Bos taurus) (UniProt Q2KIM0); conditions: 1000 uM
T4 sequence (whole entry): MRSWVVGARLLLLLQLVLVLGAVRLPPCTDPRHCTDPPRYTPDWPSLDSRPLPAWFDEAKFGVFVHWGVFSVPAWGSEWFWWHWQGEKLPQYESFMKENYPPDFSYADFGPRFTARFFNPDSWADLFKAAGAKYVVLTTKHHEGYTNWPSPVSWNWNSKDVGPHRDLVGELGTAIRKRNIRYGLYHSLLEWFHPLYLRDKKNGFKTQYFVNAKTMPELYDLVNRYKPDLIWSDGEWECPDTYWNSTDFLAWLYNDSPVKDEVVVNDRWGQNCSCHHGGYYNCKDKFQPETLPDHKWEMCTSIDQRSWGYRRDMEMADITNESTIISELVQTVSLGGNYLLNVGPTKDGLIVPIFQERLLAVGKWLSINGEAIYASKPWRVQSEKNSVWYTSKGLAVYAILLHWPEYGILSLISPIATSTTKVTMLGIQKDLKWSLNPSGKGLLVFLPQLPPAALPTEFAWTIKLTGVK

Measured: inhibition

OC[C@@H]1NC[C@@H](O)[C@@H](O)[C@H]1O
< 50%: [1] | [2] | [3] | [4] | [5]

OC[C@H]1NC[C@@H](O)[C@H](O)[C@H]1O
< 50%: [1] | [2] | [4] | [5]

OC[C@H]1NC[C@H](O)[C@@H](O)[C@H]1O
< 50%: [1] | [2] | [3] | [4] | [5]

OC[C@@H]1NC[C@@H](O)[C@H](O)[C@H]1O
< 50%: [1] | [2] | [5]

OC[C@H]1NC[C@H](O)[C@H](O)[C@@H]1O
< 50%: [1] | [3] | [4] | [5]

OC[C@@H]1NC[C@H](O)[C@@H](O)[C@@H]1O
< 50%: [1] | [2] | [3] | [4] | [5]

OC[C@H]1NC[C@H](O)[C@@H](O)[C@@H]1O [DUVOGLUSTAT]
< 50%: [2]

OC[C@H]1NC[C@@H](O)[C@@H](O)[C@@H]1O [DEOXYMANNOJIRIMYCIN]
< 50%: [1] | [3]

OC[C@H]1NC[C@H](O)[C@H](O)[C@H]1O
< 50%: [1] | [2] | [3] | [4] | [5]

OC[C@@H]1NC[C@@H](O)[C@@H](O)[C@@H]1O
< 50%: [1] | [3] | [4]

OC[C@@H]1NC[C@@H](O)[C@H](O)[C@@H]1O
< 50%: [1] | [4]

OC[C@@H]1NC[C@H](O)[C@H](O)[C@H]1O
< 50%: [1] | [2] | [3] | [4] | [5]
